{"source": "patent US8283373B2", "about": "“Inhibitors of cytosolic phospholipase A2” (Pfizer Inc., priority 2005, dated 2012)", "key": {"[1]": {"system": "primary cerebellar granule neurons", "assay": "Oxygen-glucose deprivation (OGD) in cultured cerebellar granule neurons", "assay_type": "cell-based, rat", "conditions": "for percent cell death (lactate dehydrogenase release), Avg.: OGD 2 hours, control 14, OGD 51", "method": "Primary cerebellar granule neurons were isolated from P5-8 rat pups. Briefly, cerebelli were collected and pooled in ice-cold phosphate buffer saline (PBS) without Ca^2+ and Mg^2+. The tissue was finely chopped and transferred to an enzymatic dissociation media containing 20 IU/ml papain in Earle's balanced salt solution (Worthington Biochemical, Freehold, N.J.) and incubated for 30 minutes at 37° C. After enzymatic dissociation, the papain solution was aspirated and the tissue mechanically triturated with a fire-polished Pasteur pipette in complete media [Neurobasal Medium with B-27 supplement (Gibco, Grand Island, N.Y.), penicillin/streptomycin, aphidicolin, glutamate, potassium chloride] containing 2,000 IU/ml DNase and 10 mg/ml ovomucoid protease inhibitor. Single-cell suspensions in complete media were plated on pre-coated poly-L-ornithine/laminin 24-well plates (Becton-Dickinson, Bedford, Mass.) at a density of\n5.0×10^5 cells/well. Cells were maintained for two weeks prior to experimentation.\nCultures were treated with Compound A at various concentrations, 60 minutes before OGD. Media was removed and replaced with deoxygenated buffer in an anaerobic chamber (80% nitrogen, 10% hydrogen, 10% carbon dioxide gas mixture). Fresh Compound A, Example 34 or Example 41 was added to the cultures and maintained in the anaerobic chamber for 2 hours. At the end of the incubation, fresh media was exchanged and fresh Compound A was added. Cultures were maintained for an additional 24 hours in a normoxic incubator. Cell death was determined by measuring lactate dehydrogenase release into the media 24 hours later (Roche Biochemicals). In the table below, values are shown for the control, OGD, various concentrations of Compound A, and MK801, a NMDA receptor antagonist, which is a positive control."}, "serum thromboxane B2": {"system": "serum thromboxane B2", "assay": "Thromboxane B2 levels in the ApoE KO mouse model", "assay_type": "in vivo", "conditions": "ApoE KO mice, 3.3 mg/g chow for two days; vehicle 76.1±17.3", "method": "Blood was collected through the retro-orbital siunus and left to coagulate at 37° C. for one hour. Serum was then isolated and assayed for thromboxane B2 by ELISA.\nIn a separate experiment, ApoE KO mice were dosed with vehicle or the compound of Example 25 at 10 mg/kg by oral gavage. Blood was collected through the retro-orbital siunus and left to coagulate at 37° C. for one hour. Serum was then isolated and assayed for thromboxane B2 by ELISA."}, "CFA-induced hyperalgesia": {"system": "CFA-induced hyperalgesia", "assay": "CFA-induced hyperalgesia model", "assay_type": "in vivo, rat", "conditions": "6 hours after CFA", "text": "The sensitivity of peripheral sensory neurons can be enhanced such that they respond to both noxious and non-noxious stimuli resulting in chronic pain (See Julius, D. et al., Nature. 2001; 413:203; Woolf, C. J., et al., Science. […]; 288:1765). Prostaglandins and leukotrienes at the site of inflammation and tissue damage are partially responsible for this potentiation of the pain response. Prostaglandins promote the phosphorylation of ion channels, increasing the excitability and lowering the pain threshold of sensory neurons. Analogously, leukotriene B4 and related arachidonate metabolites of 12-LO bind to and activate the capsaicin receptor (or VR1) ion channel on neurons that respond to heat and low pH (See Piomelli D., TRENDS in Pharmacological Sciences, January 2001; 22(1):17-29). The effect of the compound of Example 10 was measured in the CFA-induced hyperalgesia model, and lipid mediator production was measured at peripheral and central sites.\nThe animals were dosed with vehicle, the compound of Example 10, naproxen or celecoxib, and then CFA was immediately injected into the hind footpad. To assess hyperalgesia, pressure was applied to the left hind paw at a slow and constant rate using a digital force gauge. Measurements were taken at 0 and 6 hours. The application of the force was stopped when the animal vocalized, or struggled. Readings were taken prior to dosing and CFA injection, and repeated six hours after the CFA injection. Two independent experiments were run and the data were analyzed separately.\nThe paws were collected at the end of each experiment (6 hours) and the levels of PGE2, LTB4 and TXB2 were measured in the exudates."}, "[2]": {"system": "Ascaris suum antigen-induced bronchoconstriction and AHR", "assay": "Sheep model of antigen-induced early and late-phase bronchoconstriction and AHR", "assay_type": "in vivo", "method": "In addition to the allergen induced pulmonary inflammation models in rodents, allergen induced changes in lung function are often evaluated in allergic sheep. […] Studies performed in this animal model present strong evidence that the release of arachidonic acid metabolites plays an important role in the development of late bronchial responses to antigen challenge (See Abraham, W. M., et al, Respiration. 1989; 56:48-56). Thus, the compound of Example 10 was evaluated for effects on allergen induced changes in lung function In a sheep model of asthma.\nAllergen-induced reversible airway narrowing and AHR are two hallmark features of allergic asthma that can be examined in vivo in a sheep model of asthma. Studies performed in this animal model present strong evidence that the release of arachidonic acid metabolites plays an important role in the development of late bronchial responses to antigen challenge (See Abraham, W. M., et al., Respiration. 1989; 56:48-56). The release of leukotrienes through the LO pathway during the acute bronchial constriction after inhalation of Ascaris suum antigen represents the key factor for the initiation of the subsequent events, namely the late-phase response and the bronchial hyperreactivity. […] In addition, oral administration of a dual LTD4/TXB2 inhibitor can inhibit both the early and late-phase response, as well as AHR to carbachol and histamine (See Abraham, W. M., et al., J Pharmacol Exp Ther. 1988; 247:1004-1011).\nThe compound of Example 10 was administered at 3 mg/kg BID (PO) 24 h prior to challenge, 2 h prior to challenge and 8 hr post challenge. The mean % increase in airway resistance for 3 individual sheep over the ensuing 8 h period was determined.\nThe following day, airway hyperresponsiveness (AHR) was assessed in these same treated sheep by determining the cumulative carbachol concentration that increased specific lung resistance by 400%. […] In an extended dosing regimen, compound of Example 10 was administered at 3 mg/kg PO BID for 4 days before challenge, 2 hours before challenge on the fifth day and 8 hr post challenge."}, "[3]": {"conditions": "3 mg/kg BID PO 24 h and 2 h prior to and 8 hr post challenge"}, "[4]": {"conditions": "extended regimen: 3 mg/kg PO BID 4 days before challenge, 2 hours before and 8 hr post"}}, "note": "“Also recorded” adds a separate entry of the source."}
{"smiles": "Cc1cccc(C)c1CS(=O)(=O)NCCc1c(CCCc2ccc(C(=O)O)cc2)c2cc(Cl)ccc2n1C(c1ccccc1)c1ccccc1", "note": "[Compound A, 4-{3-[1-benzhydryl-5-chloro-2-(2-{[(2,6-dimethylbenzyl)sulfonyl]amino}ethyl)-1H-indol-3-yl]propyl}benzoic acid]", "values": [{"measurement": "protection of cultured neurons from OGD-induced cell death", "setting": "[1]", "result": "effective in protecting cultured neurons from OGD-induced cell death"}, {"measurement": "percent cell death (lactate dehydrogenase release), Avg.", "setting": "[1]; 0.1 μM", "result": 38, "unit": "%"}, {"measurement": "percent cell death (lactate dehydrogenase release), Avg.", "setting": "[1]; 0.3 μM", "result": 31, "unit": "%"}, {"measurement": "percent cell death (lactate dehydrogenase release), Avg.", "setting": "[1]; 1 μM", "result": 27, "unit": "%"}, {"measurement": "percent cell death (lactate dehydrogenase release), Avg.", "setting": "[1]; 3 μM", "result": 20, "unit": "%"}]}
{"smiles": "O=C(O)c1ccc(CCCc2c(CCNS(=O)(=O)Cc3ccccc3C(F)(F)F)n(C(c3ccccc3)c3ccccc3)c3ccc(Cl)cc23)cc1", "note": "[Example 10, 4-(3-{5-chloro-1-(diphenylmethyl)-2-[2-({[2-(trifluoromethyl)benzyl]sulfonyl}amino)ethyl]-1H-indol-3-yl}propyl)benzoic acid]", "values": [{"measurement": "serum Thromboxane concentration", "setting": "serum thromboxane B2", "result": "1.4 ± 0.7", "unit": "ng/mL"}, {"measurement": "pain (paw pressure) compared to vehicle control", "setting": "CFA-induced hyperalgesia; 25 mg/kg", "result": "statistically significant decrease; also recorded: effective"}, {"measurement": "LTB4 levels in paw exudates", "setting": "CFA-induced hyperalgesia", "result": "significantly inhibited"}, {"measurement": "TXB2 levels in paw exudates", "setting": "CFA-induced hyperalgesia", "result": "greater than the inhibition with celecoxib"}, {"measurement": "PGE2 levels in paw exudates", "setting": "CFA-induced hyperalgesia; Example 10 at 25 mg/kg", "result": "significantly inhibited"}, {"measurement": "airway hyperresponsiveness (AHR) to carbachol", "setting": "[2]; [3]", "result": "complete blockade"}, {"measurement": "late asthmatic response (airway resistance)", "setting": "[2]; [3]", "result": "Complete blockade"}, {"measurement": "AHR to aerosolized carbachol", "setting": "[2]; [4]", "result": "complete blockade"}, {"measurement": "early asthmatic response", "setting": "[2]; [4]", "result": "modest but statistically significant inhibition"}, {"measurement": "late-phase response", "setting": "[2]; [4]", "result": "complete blockade"}]}
